PubChem BioAssay (NCI)
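Each compound was tested at five concentrations against cells in 96-well plates for 48 hours. Here, GI50 denotes the concentration required for 50% inhibition of growth. TGI: total growth inhibition.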

test system: 786-0 renal; assay: inhibition of tumour cell growth, NCI panel, 48 h

Row | SMILES | TGI [µM] | GI50 [µM]
1 | CCCCCCOC(=O)/C=C/[C@]1(CO)C/C(=C/CC(C(C)C)C(C)C)C(=O)O1 | 17.6 | 
2 | Cc1nc2c(nc1C)-c1[nH]c3c(c1C(=O)C2=O)CCCC3=O | 7.34 | 
3 | Cn1c(=O)c2c(nc(Cc3ccccc3)n2CC(=O)O)n(C)c1=O | > 100 | 
4 | C=CCCCCOc1ccccc1-c1cnc(OCCCCC=C)n1C | 21.3 | 5.29
5 | CC(C)C(=O)OCC1OC(n2c(Br)nc3c(=O)[nH]c(N)nc32)C(OC(=O)C(C)C)C1OC(=O)C(C)C (stereo not drawn) | 65.3 | 
6 | C[C@H](CCC(=O)O)[C@H]1CC[C@H]2[C@@H]3CC[C@@H]4C[C@H](O)CC[C@]4(C)[C@H]3C[C@H](O)[C@]12C | > 100 | 
7 | COC(=O)/C=C(\C)CC(O)/C=C(\C)CCC=C(C)C (stereo not drawn) | > 100 | 

test system: A498 renal; assay: inhibition of tumour cell growth, NCI panel, 48 h

Row | SMILES | TGI [µM] | GI50 [µM]
8 | CCCCCCOC(=O)/C=C/[C@]1(CO)C/C(=C/CC(C(C)C)C(C)C)C(=O)O1 | 20.6 | 
9 | Cc1nc2c(nc1C)-c1[nH]c3c(c1C(=O)C2=O)CCCC3=O | 21.5 | 
10 | Cn1c(=O)c2c(nc(Cc3ccccc3)n2CC(=O)O)n(C)c1=O | > 100 | 
11 | C=CCCCCOc1ccccc1-c1cnc(OCCCCC=C)n1C | 10.2 | 2.1
12 | C[C@H](CCC(=O)O)[C@H]1CC[C@H]2[C@@H]3CC[C@@H]4C[C@H](O)CC[C@]4(C)[C@H]3C[C@H](O)[C@]12C | > 100 | 
13 | COC(=O)/C=C(\C)CC(O)/C=C(\C)CCC=C(C)C (stereo not drawn) | > 100 | 

test system: A549 NSCLC; assay: inhibition of tumour cell growth, NCI panel, 48 h

Row | SMILES | TGI [µM] | GI50 [µM]
14 | CCCCCCOC(=O)/C=C/[C@]1(CO)C/C(=C/CC(C(C)C)C(C)C)C(=O)O1 | 18.4 | 
15 | Cc1nc2c(nc1C)-c1[nH]c3c(c1C(=O)C2=O)CCCC3=O | 16.3 | 
16 | Cn1c(=O)c2c(nc(Cc3ccccc3)n2CC(=O)O)n(C)c1=O | > 100 | 
17 | C=CCCCCOc1ccccc1-c1cnc(OCCCCC=C)n1C | 21.9 | 3.92
18 | CC(C)C(=O)OCC1OC(n2c(Br)nc3c(=O)[nH]c(N)nc32)C(OC(=O)C(C)C)C1OC(=O)C(C)C (stereo not drawn) | > 100 | 
19 | C[C@H](CCC(=O)O)[C@H]1CC[C@H]2[C@@H]3CC[C@@H]4C[C@H](O)CC[C@]4(C)[C@H]3C[C@H](O)[C@]12C | > 100 | 
20 | COC(=O)/C=C(\C)CC(O)/C=C(\C)CCC=C(C)C (stereo not drawn) | > 100 | 

test system: ACHN renal; assay: inhibition of tumour cell growth, NCI panel, 48 h

Row | SMILES | TGI [µM] | GI50 [µM]
21 | CCCCCCOC(=O)/C=C/[C@]1(CO)C/C(=C/CC(C(C)C)C(C)C)C(=O)O1 | 20.7 | 
22 | Cc1nc2c(nc1C)-c1[nH]c3c(c1C(=O)C2=O)CCCC3=O | 7.35 | 
23 | Cn1c(=O)c2c(nc(Cc3ccccc3)n2CC(=O)O)n(C)c1=O | > 100 | 
24 | C=CCCCCOc1ccccc1-c1cnc(OCCCCC=C)n1C | 38.9 | 6.8
25 | CC(C)C(=O)OCC1OC(n2c(Br)nc3c(=O)[nH]c(N)nc32)C(OC(=O)C(C)C)C1OC(=O)C(C)C (stereo not drawn) | > 100 | 
26 | C[C@H](CCC(=O)O)[C@H]1CC[C@H]2[C@@H]3CC[C@@H]4C[C@H](O)CC[C@]4(C)[C@H]3C[C@H](O)[C@]12C | > 100 | 
27 | COC(=O)/C=C(\C)CC(O)/C=C(\C)CCC=C(C)C (stereo not drawn) | > 100 | 

test system: BT-549 breast; assay: inhibition of tumour cell growth, NCI panel, 48 h

Row | SMILES | TGI [µM] | GI50 [µM]
28 | CCCCCCOC(=O)/C=C/[C@]1(CO)C/C(=C/CC(C(C)C)C(C)C)C(=O)O1 | 22.9 | 
29 | Cn1c(=O)c2c(nc(Cc3ccccc3)n2CC(=O)O)n(C)c1=O | > 100 | 
30 | C=CCCCCOc1ccccc1-c1cnc(OCCCCC=C)n1C | 18.7 | 4.15
31 | CC(C)C(=O)OCC1OC(n2c(Br)nc3c(=O)[nH]c(N)nc32)C(OC(=O)C(C)C)C1OC(=O)C(C)C (stereo not drawn) | > 100 | 
32 | C[C@H](CCC(=O)O)[C@H]1CC[C@H]2[C@@H]3CC[C@@H]4C[C@H](O)CC[C@]4(C)[C@H]3C[C@H](O)[C@]12C | > 100 | 
33 | COC(=O)/C=C(\C)CC(O)/C=C(\C)CCC=C(C)C (stereo not drawn) | > 100 | 

test system: CAKI-1 renal; assay: inhibition of tumour cell growth, NCI panel, 48 h

Row | SMILES | TGI [µM] | GI50 [µM]
34 | CCCCCCOC(=O)/C=C/[C@]1(CO)C/C(=C/CC(C(C)C)C(C)C)C(=O)O1 | 23.7 | 
35 | Cn1c(=O)c2c(nc(Cc3ccccc3)n2CC(=O)O)n(C)c1=O | > 100 | 
36 | C=CCCCCOc1ccccc1-c1cnc(OCCCCC=C)n1C | 23.8 | 4.36
37 | C[C@H](CCC(=O)O)[C@H]1CC[C@H]2[C@@H]3CC[C@@H]4C[C@H](O)CC[C@]4(C)[C@H]3C[C@H](O)[C@]12C | > 100 | 
38 | COC(=O)/C=C(\C)CC(O)/C=C(\C)CCC=C(C)C (stereo not drawn) | > 100 | 

test system: CCRF-CEM leukemia; assay: inhibition of tumour cell growth, NCI panel, 48 h

Row | SMILES | TGI [µM] | GI50 [µM]
39 | Cc1nc2c(nc1C)-c1[nH]c3c(c1C(=O)C2=O)CCCC3=O | 5.16 | 
40 | Cn1c(=O)c2c(nc(Cc3ccccc3)n2CC(=O)O)n(C)c1=O | > 100 | 
41 | C=CCCCCOc1ccccc1-c1cnc(OCCCCC=C)n1C | 20.4 | 4.27
42 | C[C@H](CCC(=O)O)[C@H]1CC[C@H]2[C@@H]3CC[C@@H]4C[C@H](O)CC[C@]4(C)[C@H]3C[C@H](O)[C@]12C | 63.8 | 
43 | COC(=O)/C=C(\C)CC(O)/C=C(\C)CCC=C(C)C (stereo not drawn) | 94.1 | 

test system: COLO 205 colon; assay: inhibition of tumour cell growth, NCI panel, 48 h

Row | SMILES | TGI [µM] | GI50 [µM]
44 | Cc1nc2c(nc1C)-c1[nH]c3c(c1C(=O)C2=O)CCCC3=O | 7.93 | 
45 | C=CCCCCOc1ccccc1-c1cnc(OCCCCC=C)n1C | 11.1 | 3.23
